Data from US20240058422A1, “GLUCAGON-LIKE PEPTIDE-1 RECEPTOR ANTAGONISTS” (INDIANA UNIVERSITY RESEARCH AND TECHNOLOGY CORPORATION, priority 2022, published 2024).
pIC50: −log10 of the molar value. Starred links: 1 amine or outer side, 2 acyl side, 3 side chain; linkers in the order of their positions; H or OH if unused. Residues, ends and D or L forms follow the SMILES beside them. Groups on a side chain read outwards from the residue. *: point of attachment. C18 diacid = O=C(O)CCCCCCCCCCCCCCCCC(=O)*; γGlu = O=C(O)[C@H](CCC(=O)[*:2])N[*:1]; Palmitoyl = CCCCCCCCCCCCCCCC(=O)*; AEEA = NCCOCCOCC(=O)O

How the values were obtained:
Solubility in buffer = conditions: 80 mM ammonium bicarbonate buffer, pH 7.7, Solubility [mg/mL] 80 mM AmBicarb pH7.7, Table 2; 80 mM AmBicarb pH7.7
GLP-1R = GLP-1R (Homo sapiens, UniProt P43220); assay: GLP-1 receptor-mediated cAMP induction, luciferase reporter gene antagonism assay; format: cell-based; design: host or cells: HEK 293; conditions: Table 2; C16 linker variants of 9-40amide Jant4 K40[X]; antagonism of 0.05 nM GLP-1, HEK 293 cells; read-out: Biactivity IC50
Chain of GLP-1R (P43220 24-463): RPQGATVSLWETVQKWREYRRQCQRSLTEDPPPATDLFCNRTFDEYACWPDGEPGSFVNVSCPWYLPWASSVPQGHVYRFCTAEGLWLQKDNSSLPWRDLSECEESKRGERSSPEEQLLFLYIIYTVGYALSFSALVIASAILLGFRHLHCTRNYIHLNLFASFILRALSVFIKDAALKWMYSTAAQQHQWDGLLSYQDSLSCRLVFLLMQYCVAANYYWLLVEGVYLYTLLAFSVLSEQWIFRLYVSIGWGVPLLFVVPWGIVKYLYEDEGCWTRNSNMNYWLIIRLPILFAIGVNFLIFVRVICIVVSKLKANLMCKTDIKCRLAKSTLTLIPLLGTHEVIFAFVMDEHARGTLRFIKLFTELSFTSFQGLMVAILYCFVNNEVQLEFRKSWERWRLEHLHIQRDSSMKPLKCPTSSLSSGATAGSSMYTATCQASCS
Experimental: GLP-1 Receptor-Mediated cAMP Induction The ability of peptides to stimulate or block cAMP induction at the GLP-1 receptor was examined by a luciferase-based reporter gene assay. Cotransfection of HEK 293 cells with the human GLP-1 receptor (Open Biosystems) and a cAMPinducible (cAMPresponsive element) luciferase gene constituted the cellular construct where receptor activation could be measured. Bioassays were performed by first serum depriving the cells for 16 h in 0.25% bovine growth serum (HyClone)-supplemented Dulbecco's modified Eagle's medium (Invitrogen) and then adding serial dilutions of the peptides over the appropriate concentration ranges in 96-well poly-D-lysine-coated plates (BD Biosciences). For antagonism assays, a constant concentration of GLP-1 (0.05 nM) was added to the assay plate after the diluted peptides. Incubation continued for 5 h at 37° C., 5% CO2 and was followed by the addition of an equivalent volume (100 μL) of LucLite luminescence substrate reagent (Perkin-Elmer). MicroBeta 1450 liquid scintillation counting (Perkin-Elmer) quantified the luminescence signal in counts per second (cps) after shaking the plate at 600 rpm for 3 min. Data was plotted using Origin software (OriginLab) and the effective concentration 50 (EC50) or inhibitory concentration 50 (IC50) was determined by sigmoidal fitting. Potency was determined by comparative analysis of relative EC50 or IC50 values. Each experiment was repeated at least three times with each sample assayed in duplicate.

Row | Structure (SMILES) | solubility (Solubility in buffer) [mg/mL] | pIC50 (GLP-1R)
1 | CCCCCCCCCCCCCCCC(=O)NCCOCCOCC(=O)N[C@@H](CCC(=O)NCCOCCOCC(=O)N[C@@H](CCC(=O)NCCCC[C@H](NC(=O)[C@H](CO)NC(=O)[C@@H]1CCCN1C(=O)[C@@H]1CCCN1C(=O)[C@@H]1CCCN1C(=O)[C@H](C)NC(=O)CNC(=O)[C@H](CO)NC(=O)[C@H](CO)NC(=O)[C@@H]1CCCN1C(=O)CNC(=O)CNC(=O)[C@H](CCCCN)NC(=O)[C@@H](NC(=O)[C@H](CC(C)C)NC(=O)[C@H](Cc1c[nH]c2ccccc12)NC(=O)[C@H](C)NC(=O)[C@@H](NC(=O)[C@H](Cc1ccccc1)NC(=O)[C@H](CCC(=O)O)NC(=O)[C@H](CCCNC(=N)N)NC(=O)[C@@H](NC(=O)[C@H](C)NC(=O)[C@H](CCC(N)=O)NC(=O)[C@H](CCC(=O)O)NC(=O)[C@H](CCC(=O)O)NC(=O)[C@H](CC(C)C)NC(=O)[C@H](Cc1ccc(O)cc1)NC(=O)[C@H](CO)NC(=O)[C@H](CO)NC(=O)[C@@H](NC(=O)[C@@H](N)CC(=O)O)C(C)C)C(C)C)[C@@H](C)CC)C(C)C)C(N)=O)C(=O)O)C(=O)O [compound 62] (H-DVSSYLEEQAVREFIAWLVKGGPSSGAPPPSK([γGlu-AEEA-γGlu-AEEA-Palmitoyl])-NH2; N-terminus assumed) | > 25 | 8.15
2 | CC[C@H](C)[C@H](NC(=O)[C@H](Cc1ccccc1)NC(=O)[C@H](CCC(=O)O)NC(=O)[C@H](CCCNC(=N)N)NC(=O)[C@@H](NC(=O)[C@H](C)NC(=O)[C@H](CCC(N)=O)NC(=O)[C@H](CCC(=O)O)NC(=O)[C@H](CCC(=O)O)NC(=O)[C@H](CC(C)C)NC(=O)[C@H](Cc1ccc(O)cc1)NC(=O)[C@H](CO)NC(=O)[C@H](CO)NC(=O)[C@@H](NC(=O)[C@@H](N)CC(=O)O)C(C)C)C(C)C)C(=O)N[C@@H](C)C(=O)N[C@@H](Cc1c[nH]c2ccccc12)C(=O)N[C@@H](CC(C)C)C(=O)N[C@H](C(=O)N[C@@H](CCCCN)C(=O)NCC(=O)NCC(=O)N1CCC[C@H]1C(=O)N[C@@H](CO)C(=O)N[C@@H](CO)C(=O)NCC(=O)N[C@@H](C)C(=O)N1CCC[C@H]1C(=O)N1CCC[C@H]1C(=O)N1CCC[C@H]1C(=O)N[C@@H](CO)C(=O)N[C@@H](CCCCNC(=O)CCCCCCCCCCCCCCCCC(=O)O)C(N)=O)C(C)C [compound 63] (H-DVSSYLEEQAVREFIAWLVKGGPSSGAPPPSK(C18 diacid)-NH2; N-terminus assumed) | > 25 | 6.94
3 | CC[C@H](C)[C@H](NC(=O)[C@H](Cc1ccccc1)NC(=O)[C@H](CCC(=O)O)NC(=O)[C@H](CCCNC(=N)N)NC(=O)[C@@H](NC(=O)[C@H](C)NC(=O)[C@H](CCC(N)=O)NC(=O)[C@H](CCC(=O)O)NC(=O)[C@H](CCC(=O)O)NC(=O)[C@H](CC(C)C)NC(=O)[C@H](Cc1ccc(O)cc1)NC(=O)[C@H](CO)NC(=O)[C@H](CO)NC(=O)[C@@H](NC(=O)[C@@H](N)CC(=O)O)C(C)C)C(C)C)C(=O)N[C@@H](C)C(=O)N[C@@H](Cc1c[nH]c2ccccc12)C(=O)N[C@@H](CC(C)C)C(=O)N[C@H](C(=O)N[C@@H](CCCCN)C(=O)NCC(=O)NCC(=O)N1CCC[C@H]1C(=O)N[C@@H](CO)C(=O)N[C@@H](CO)C(=O)NCC(=O)N[C@@H](C)C(=O)N1CCC[C@H]1C(=O)N1CCC[C@H]1C(=O)N1CCC[C@H]1C(=O)N[C@@H](CO)C(=O)N[C@@H](CCCCNC(=O)CC[C@H](NC(=O)CC[C@H](NC(=O)CCCCCCCCCCCCCCCCC(=O)O)C(=O)O)C(=O)O)C(N)=O)C(C)C [compound 64] (H-DVSSYLEEQAVREFIAWLVKGGPSSGAPPPSK([γGlu-γGlu-C18 diacid])-NH2; N-terminus assumed) | > 25 | 6.08
4 | CC[C@H](C)[C@H](NC(=O)[C@H](Cc1ccccc1)NC(=O)[C@H](CCC(=O)O)NC(=O)[C@H](CCCNC(=N)N)NC(=O)[C@@H](NC(=O)[C@H](C)NC(=O)[C@H](CCC(N)=O)NC(=O)[C@H](CCC(=O)O)NC(=O)[C@H](CCC(=O)O)NC(=O)[C@H](CC(C)C)NC(=O)[C@H](Cc1ccc(O)cc1)NC(=O)[C@H](CO)NC(=O)[C@H](CO)NC(=O)[C@@H](NC(=O)[C@@H](N)CC(=O)O)C(C)C)C(C)C)C(=O)N[C@@H](C)C(=O)N[C@@H](Cc1c[nH]c2ccccc12)C(=O)N[C@@H](CC(C)C)C(=O)N[C@H](C(=O)N[C@@H](CCCCN)C(=O)NCC(=O)NCC(=O)N1CCC[C@H]1C(=O)N[C@@H](CO)C(=O)N[C@@H](CO)C(=O)NCC(=O)N[C@@H](C)C(=O)N1CCC[C@H]1C(=O)N1CCC[C@H]1C(=O)N1CCC[C@H]1C(=O)N[C@@H](CO)C(=O)N[C@@H](CCCCNC(=O)CC[C@H](NC(=O)CC[C@H](NC(=O)CC[C@H](NC(=O)CC[C@H](NC(=O)CCCCCCCCCCCCCCCCC(=O)O)C(=O)O)C(=O)O)C(=O)O)C(=O)O)C(N)=O)C(C)C [compound 65] (H-DVSSYLEEQAVREFIAWLVKGGPSSGAPPPSK([γGlu-γGlu-γGlu-γGlu-C18 diacid])-NH2; N-terminus assumed) | > 25 | 5.97
5 | CC[C@H](C)[C@H](NC(=O)[C@H](Cc1ccccc1)NC(=O)[C@H](CCC(=O)O)NC(=O)[C@H](CCCNC(=N)N)NC(=O)[C@@H](NC(=O)[C@H](C)NC(=O)[C@H](CCC(N)=O)NC(=O)[C@H](CCC(=O)O)NC(=O)[C@H](CCC(=O)O)NC(=O)[C@H](CC(C)C)NC(=O)[C@H](Cc1ccc(O)cc1)NC(=O)[C@H](CO)NC(=O)[C@H](CO)NC(=O)[C@@H](NC(=O)[C@@H](N)CC(=O)O)C(C)C)C(C)C)C(=O)N[C@@H](C)C(=O)N[C@@H](Cc1c[nH]c2ccccc12)C(=O)N[C@@H](CC(C)C)C(=O)N[C@H](C(=O)N[C@@H](CCCCN)C(=O)NCC(=O)NCC(=O)N1CCC[C@H]1C(=O)N[C@@H](CO)C(=O)N[C@@H](CO)C(=O)NCC(=O)N[C@@H](C)C(=O)N1CCC[C@H]1C(=O)N1CCC[C@H]1C(=O)N1CCC[C@H]1C(=O)N[C@@H](CO)C(=O)N[C@@H](CCCCNC(=O)CC[C@H](NC(=O)CC[C@H](NC(=O)CC[C@H](NC(=O)CC[C@H](NC(=O)CC[C@H](NC(=O)CC[C@H](NC(=O)CCCCCCCCCCCCCCCCC(=O)O)C(=O)O)C(=O)O)C(=O)O)C(=O)O)C(=O)O)C(=O)O)C(N)=O)C(C)C [compound 66] (H-DVSSYLEEQAVREFIAWLVKGGPSSGAPPPSK([γGlu-γGlu-γGlu-γGlu-γGlu-γGlu-C18 diacid])-NH2; N-terminus assumed) | > 25 | 5.83
6 | CC[C@H](C)[C@H](NC(=O)[C@H](Cc1ccccc1)NC(=O)[C@H](CCC(=O)O)NC(=O)[C@H](CCCNC(=N)N)NC(=O)[C@@H](NC(=O)[C@H](C)NC(=O)[C@H](CCC(N)=O)NC(=O)[C@H](CCC(=O)O)NC(=O)[C@H](CCC(=O)O)NC(=O)[C@H](CC(C)C)NC(=O)[C@H](Cc1ccc(O)cc1)NC(=O)[C@H](CO)NC(=O)[C@H](CO)NC(=O)[C@@H](NC(=O)[C@@H](N)CC(=O)O)C(C)C)C(C)C)C(=O)N[C@@H](C)C(=O)N[C@@H](Cc1c[nH]c2ccccc12)C(=O)N[C@@H](CC(C)C)C(=O)N[C@H](C(=O)N[C@@H](CCCCN)C(=O)NCC(=O)NCC(=O)N1CCC[C@H]1C(=O)N[C@@H](CO)C(=O)N[C@@H](CO)C(=O)NCC(=O)N[C@@H](C)C(=O)N1CCC[C@H]1C(=O)N1CCC[C@H]1C(=O)N1CCC[C@H]1C(=O)N[C@@H](CO)C(=O)N[C@@H](CCCCNC(=O)COCCOCCNC(=O)COCCOCCNC(=O)CC[C@H](NC(=O)CCCCCCCCCCCCCCCCC(=O)O)C(=O)O)C(N)=O)C(C)C [compound 67] (H-DVSSYLEEQAVREFIAWLVKGGPSSGAPPPSK([AEEA-AEEA-γGlu-C18 diacid])-NH2) | > 25 | 6.24
7 | CC[C@H](C)[C@H](NC(=O)[C@H](Cc1ccccc1)NC(=O)[C@H](CCC(=O)O)NC(=O)[C@H](CCCNC(=N)N)NC(=O)[C@@H](NC(=O)[C@H](C)NC(=O)[C@H](CCC(N)=O)NC(=O)[C@H](CCC(=O)O)NC(=O)[C@H](CCC(=O)O)NC(=O)[C@H](CC(C)C)NC(=O)[C@H](Cc1ccc(O)cc1)NC(=O)[C@H](CO)NC(=O)[C@H](CO)NC(=O)[C@@H](NC(=O)[C@@H](N)CC(=O)O)C(C)C)C(C)C)C(=O)N[C@@H](C)C(=O)N[C@@H](Cc1c[nH]c2ccccc12)C(=O)N[C@@H](CC(C)C)C(=O)N[C@H](C(=O)N[C@@H](CCCCN)C(=O)NCC(=O)NCC(=O)N1CCC[C@H]1C(=O)N[C@@H](CO)C(=O)N[C@@H](CO)C(=O)NCC(=O)N[C@@H](C)C(=O)N1CCC[C@H]1C(=O)N1CCC[C@H]1C(=O)N1CCC[C@H]1C(=O)N[C@@H](CO)C(=O)N[C@@H](CCCCNC(=O)COCCOCCNC(=O)CC[C@H](NC(=O)CCCCCCCCCCCCCCCCC(=O)O)C(=O)O)C(N)=O)C(C)C [compound 68] (H-DVSSYLEEQAVREFIAWLVKGGPSSGAPPPSK([AEEA-γGlu-C18 diacid])-NH2; N-terminus assumed) | > 25 | 6.14
